Assay results published in patent US8772330B2, “Inhibitor(s) of transporters or uptake of monoaminergic neurotransmitters” (State of Oregon acting by and through the State Board of …, priority 2009, dated 2014).
Structures can show the parent of a compound that is named as a salt.

What was measured:
[1] = molecular target: T1, serotonin (5-HT) transporter (Homo sapiens, UniProt P31645); details: for Slope, Serotonin (5-HT) transporter: Table 1, binding curve slope
[2] = molecular target: T2, dopamine (DA) transporter (Homo sapiens, UniProt Q01959); details: for Slope, Dopamine (DA) transporter: Table 1, binding curve slope
T2 sequence (Q01959 whole entry): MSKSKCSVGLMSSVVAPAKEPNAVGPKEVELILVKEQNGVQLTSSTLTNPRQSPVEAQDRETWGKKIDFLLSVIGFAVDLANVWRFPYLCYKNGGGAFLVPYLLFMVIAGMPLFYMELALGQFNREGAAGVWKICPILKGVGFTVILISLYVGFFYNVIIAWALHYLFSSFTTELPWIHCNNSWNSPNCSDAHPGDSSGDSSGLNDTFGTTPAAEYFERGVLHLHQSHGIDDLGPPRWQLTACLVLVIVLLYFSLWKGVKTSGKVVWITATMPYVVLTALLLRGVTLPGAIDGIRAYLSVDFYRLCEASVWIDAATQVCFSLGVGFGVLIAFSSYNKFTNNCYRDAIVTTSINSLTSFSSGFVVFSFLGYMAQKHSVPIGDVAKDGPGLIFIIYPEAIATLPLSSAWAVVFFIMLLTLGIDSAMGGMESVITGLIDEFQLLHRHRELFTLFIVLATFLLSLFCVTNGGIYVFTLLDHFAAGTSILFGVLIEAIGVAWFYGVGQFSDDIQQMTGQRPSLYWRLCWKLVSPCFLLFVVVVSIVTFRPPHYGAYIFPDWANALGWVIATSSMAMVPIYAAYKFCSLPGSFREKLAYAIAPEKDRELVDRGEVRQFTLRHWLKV

[3] = molecular target: T3, norepinephrine (NE) transporter (Homo sapiens, UniProt P23975)
Target sequence in this assay (P23975 whole entry): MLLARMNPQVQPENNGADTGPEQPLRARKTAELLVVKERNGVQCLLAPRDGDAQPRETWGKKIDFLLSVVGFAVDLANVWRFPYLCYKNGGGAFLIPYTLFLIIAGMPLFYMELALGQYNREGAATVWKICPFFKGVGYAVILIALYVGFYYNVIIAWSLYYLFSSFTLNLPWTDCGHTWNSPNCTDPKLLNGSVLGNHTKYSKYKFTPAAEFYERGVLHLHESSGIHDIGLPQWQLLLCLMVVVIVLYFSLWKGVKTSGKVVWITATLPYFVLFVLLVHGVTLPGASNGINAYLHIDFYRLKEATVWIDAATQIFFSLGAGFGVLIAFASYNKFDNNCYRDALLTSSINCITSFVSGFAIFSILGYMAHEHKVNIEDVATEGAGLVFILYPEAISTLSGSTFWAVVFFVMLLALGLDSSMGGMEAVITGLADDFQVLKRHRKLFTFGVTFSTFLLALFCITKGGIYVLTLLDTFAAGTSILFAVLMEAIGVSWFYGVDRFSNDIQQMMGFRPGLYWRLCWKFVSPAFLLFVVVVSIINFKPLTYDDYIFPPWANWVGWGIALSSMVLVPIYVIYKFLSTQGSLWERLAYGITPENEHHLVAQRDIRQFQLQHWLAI

[4] = molecular target: T1, serotonin (5-HT) transporter; details: Table 2; data derived from literature; read-out: Affinity (Ki), 5-Hydroxy Tryptamine (5-HT) transporter; cited from earlier work
[5] = molecular target: T3, norepinephrine (NE) transporter; details: Table 2; data derived from literature; read-out: Affinity (Ki), Norepinephrine (NE) transporter; cited from earlier work
Target sequence in this assay (P23975 whole entry, species assumed): as the sequence (P23975 whole entry) above

[6] = molecular target: T2, dopamine (DA) transporter; details: Table 2; data derived from literature; read-out: Affinity (Ki), Dopamine (DA) transporter; cited from earlier work

T1 sequence (P31645 whole entry): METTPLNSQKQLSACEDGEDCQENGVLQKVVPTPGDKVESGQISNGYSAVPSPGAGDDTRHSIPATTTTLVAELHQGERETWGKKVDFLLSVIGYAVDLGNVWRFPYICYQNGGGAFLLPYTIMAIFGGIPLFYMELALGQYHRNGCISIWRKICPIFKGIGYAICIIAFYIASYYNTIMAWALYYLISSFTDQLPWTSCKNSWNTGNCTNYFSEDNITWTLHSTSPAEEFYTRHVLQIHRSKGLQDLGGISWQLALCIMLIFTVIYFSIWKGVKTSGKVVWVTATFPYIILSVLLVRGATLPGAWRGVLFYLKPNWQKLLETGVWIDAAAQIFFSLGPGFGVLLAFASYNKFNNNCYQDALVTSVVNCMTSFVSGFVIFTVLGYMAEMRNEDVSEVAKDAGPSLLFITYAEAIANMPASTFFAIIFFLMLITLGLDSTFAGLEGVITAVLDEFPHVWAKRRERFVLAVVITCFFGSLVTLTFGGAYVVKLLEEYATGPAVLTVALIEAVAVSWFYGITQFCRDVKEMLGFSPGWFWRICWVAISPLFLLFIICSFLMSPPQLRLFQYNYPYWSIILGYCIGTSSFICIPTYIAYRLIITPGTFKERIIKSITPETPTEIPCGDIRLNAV

SMILES	Slope, Serotonin (5-HT) transporter [1]	Slope, Dopamine (DA) transporter [2]	times more potent than DWJW0002 as inhibitor of dopamine transporter ([2]; with reference to Table 1)	other results
CNC[C@@H]1C[C@]1(Oc1cccc2ccccc12)c1cccs1 (racemic) [DWJW0002, (E)-N-Methyl-[2-(naphthalen-1-yloxy)-2-(thiophen-2-yl)cyclopropyl)methanamine Hydrochloride]	−0.92	−1.11		times more potent than DWJW0003 as inhibitor of serotonin transporter ([1]; with reference to Table 1): about 3 times
CNCC1CC1(Oc1cccc2ccccc12)c1cccs1 (racemic) [DWJW0003, (Z)-N-Methyl-[2-(naphthalen-1-yloxy)-2-(thiophen-2-yl)cyclopropyl]methanamine Hydrochloride]	−1.19	−1	about 2 times	Slope, Norepinephrine (NE) transporter ([3]; Table 1, binding curve slope): −0.84; times more potent than DWJW0002 as inhibitor of norepinephrine transporter ([3]; with reference to Table 1): about 9 times
C#Cc1ccc([C@@H]2CN3CCC[C@@H]3c3ccccc32)cc1 [JNJ-7925476]				Ki [4]: 0.9 ± 0.1 nM; Ki [5]: 16.6 ± 7 nM; Ki [6]: 5.2 ± 1 nM
Fc1ccc(C(OCCN2CCN(CCCc3ccccc3)CC2)c2ccc(F)cc2)cc1 [GBR12909, reference compound]		−1.25	16 times	times more potent than DWJW0003 as inhibitor of dopamine transporter ([2]; with reference to Table 1): 8 times
CN(C)CCCN1c2ccccc2CCc2ccccc21 [Imipramine, reference compound]	−1.06			
